Laboratory results: PubChem BioAssay AID720520 (The Scripps Research Institute Molecular Screening Center, 2013)

Tests used:
Experiment in all cases: selectivity of inhibitors across other TLRs – RAW264.7 cells, luminescence, powder samples, selectivity assay for TLR9 inhibitor project, late-stage follow-up (AID 720520); call rule not given here
TLR4 = details: RAW264.7 TLR2/4/7-8 NFkB-luciferase reporter, 6 h, with LPS 0.1 µg/mL
TLR7/8 = details: RAW264.7 TLR2/4/7-8 NFkB-luciferase reporter, 6 h, with R848 1 µg/mL
TLR2 = details: RAW264.7 TLR2/4/7-8 NFkB-luciferase reporter, 6 h, with MALP-2 50 ng/mL

Measured: IC50

O=C1C=CC2(C=C1)O[C@H](Cc1ccccc1)[C@@H](Cc1ccccc1)O2
active: TLR4 226 nM | TLR7/8 245 nM | TLR2 226 nM

O=S(=O)(/C=C/C=C/S(=O)(=O)c1ccccc1)c1ccccc1
active: TLR4 126 nM | TLR7/8 93 nM | TLR2 126 nM

COc1ccc(C[C@@H]2OC3(C=CC(=O)C=C3)O[C@H]2Cc2ccc(OC)cc2)cc1
active: TLR4 72 nM | TLR7/8 80 nM | TLR2 58 nM
